# Data: US10537100B2, “Substituted methylenedioxybenzyl compounds and their use as synergists” (Endura SPA, priority 2015, dated 2020)
# Marks after values point to notes of the source that are not given here.
# Legend:
# Type in all cases: in vivo
# Musca domestica = test: Contact test on treated glass surfaces, synergist with cypermethrin
# Procedure: Laboratory bred Musca domestica species, 4-5 days old mixed sex imagoes derived from a field collected strain were assayed for the test. 1000 ml of test solutions were prepared diluting in water 6.06 grams of cypermethrin commercial formulation, equivalent to 0.224 g of cypermethrin per liter of insecticidal solution and a suitable amount of synergist such as to have a ratio between cypermethryn and synergists=1:13. The synergists were formulated in the form of emulsified concentrate (EC). The following amount of the formulations of synergist EC were added to the above described insecticidal solution of cypermethrin.
# 3.83 g of EC formulation containing 77.1% (w/w) of the compound of Example 2 (5-n-butyl-6-((prop-2-ynyloxy)methyl)benzo[d][1,3]dioxole)
# 3.57 g of EC formulation containing 83% (w/w) of the comparison compound 5-(but-2-ynyloxymethyl)-6-n-propyl-benzo[1,3]dioxole (EN126) corresponding to 2.95 g of the compound of the invention and of the comparison product per liter of test formulation
# 1 ml of each test formulation was applied to each individual grass surface of 100 cm^2 by means of a hand held pump sprayer on a scale measuring by 2 decimal precision, being the acceptable limit of divergence: +/−10%. The treated glass surfaces were left at room temperature for 24 hours after treatment and prior to be used. 40 mixed sex Musca domestica imagoes (20 males and 20 females) were selected and placed into a 500 cm^3 glass cylinders covered with an untreated glass surface until the start of the study. Five replicates were executed, altogether 200 houseflies (100 males and 100 females) were used per test formulation. At the beginning of the test, the untreated glass covering the glass cylinder was replaced with a glass surface treated with the test formulation. The exposure time was 30 minutes. After this period of time, the treated glass surfaces were removed and replaced with untreated ones. During the test water and food (water/sugar solution) were provided to the test insect inside the glass cylinders
# In parallel with the test, the mortality of flies in an untreated control replicate was determined using the same conditions and methods. Throughout the control test, non-treated glass surfaces covered the glass cylinders. The maximum mortality rate allowed within the control group to consider the test representative was 10% after 24 hours. If above this value, the test was not considered representative and was repeated. During the trials, no deviance has been noted.
# The test conditions were as follows: • temperature: 23-25° C. • relative humidity: min. 60% • light regime: 12 hrs dark/12 hrs natural illumination.
# The reading intervals of the number of knocked down flies were: 10-20-30-40-50-60-90-120-180 minutes. Mortality was determined after 24 hours.
# The efficacy was calculated according the following formula
# Blattella germanica = test: Contact test on treated glass vials, synergist with cypermethrin; conditions: cypermethrin 120 μg/mL, synergist 1.0 g/L; for knock down: average of 4 repetitions
# Procedure: Laboratory bred B. germanica species, mixed ages (pre-immaginal and imagoes) and mixed sex were assayed for the test.
# An insecticide stock solution was prepared with 150 μL of cypermethrin commercial formulation and diluted to 15 μL/mL with technical acetone to a final volume of 10 mL. The solution contained 450 μg/mL of cypermethrin per liter of insecticidal solution
# Stock solution of the compounds of Example 1 and Example 2 were prepared dissolving around 10 mg of EC formulations containing compounds of the Example 1 and Example 2 in technical acetone to have a final concentration of 1.365 μg/mL.
# Stock solution (1650 μL) was diluted to 2250 μL with acetone or with stock of insecticide in acetone to have respectively a final concentration of 1 g/L of synergist (as active ingredient) or 0.12 g/L of cypermethrin+1 g/L of the compounds of Example 1 and Example 2. Insecticide alone was prepared adding 600 μL of stock solution to 1650 μL of acetone.
# Glass vials (internal surface 35 cm^2) were treated with 350 μL of insecticide solution and allowed to dry in a fume hood on a vial rotator and used as soon as the acetone was fully evaporated.
# B. germanica specimens were introduced singly in vials. 20 specimens were tested for each combination of product. The exposure time to product residues was 30 minutes. After this duration the specimens were transferred to an untreated vial ad provided with food and water.
# In parallel within the test, a control study has been set up with the same conditions and methods using acetone only treated vials.
# The test conditions were as follows: • temperature: 22-24° C. during knock down evaluation (t: 0-30′); 26° C. during mortality assessment (t: 24 h) • relative humidity: min. 60% • light regime: 8 hrs dark/16 hrs natural illumination.
# The reading intervals of the number of knocked down and the number of dead insects were: 5-10-15-20-25-30 minutes. A final reading was done 24 hours after the starting of the exposure.
# The calculation model of efficacy is according to Abbott's formula (Abbott W S (1925) A method for computing the effectiveness of an insecticide. J. Econ. Entomol. 18: 265-267):
# The results are reported in the following Table 5 and represent an average of 4 repetitions.
# [1] = tested on: Myzus persicae clone highly resistant to insecticide; test: Contact test on treated plant (pea seedling dip), synergist with neonicotinoid; conditions: synergist 1 g/L, mortality assessed at 48 hours, Abbott's formula
# Procedure: Laboratory bred Myzus persicae clone highly resistant to insecticide, derived from a field collected population after control failure, mixed age apterous parthenogenetic females adults, were assayed for the test.
# Four (4) different commercially available formulated insecticides were used and diluted as follow: • imidacloprid: 1000 mL of test solution was prepared diluting in water 20 μL of commercial formulation, containing 200 g/L of a.i., equivalent to 0.004 g of imidacloprid per liter of insecticidal solution; • thiacloprid: 1000 mL of test solution was prepared diluting in water 24 μL of commercial formulation containing 480 g/L of a.i, equivalent to 0.012 g of thiacloprid per liter of insecticidal solution;
# The compounds of Example 1 and Example 2 were formulated in the form of emulsified concentrate (EC).
# The following amount of the EC formulations were added to the above described insecticidal solution of insecticide to have a final concentration of synergist equal to 1 g/L:
# 20 mL of test formulations were used to wet by dipping for 5″ a small pea seedling (1-1.5 cm long). Seedlings were left at room temperature in a fume hood and allowed to dry for 15″. After drying 10-15 apterous parthenogenetic females were moved to the seedling and allowed to settle. Mortality produced by pyrethroids was assessed 24 hours later. Mortality produced by neonicotinoids was assessed 48 hours later.
# Three replicates were executed each composed by 2 subreplicates (seedlings) and 60-90 specimens were used per test formulation.
# In parallel with the test, the mortality of aphids in an untreated control replicate (seedlings dipped in water) was determined using the same conditions and methods.
# The efficacy was calculated according the Abbott's formula: […]
compound,measurement,setting,value
"CC1(C)C(C=C(Cl)Cl)C1C(=O)OC(C#N)c1cccc(Oc2ccccc2)c1 (centres unmarked) [Cypermethrin, cypermethrin]",mortality by %,"Musca domestica; 24 h, 30 min exposure, cypermethrin formulation 6.06 g/l (0.224 g/l a.i.), cypermethrin:synergist 1:13",61%
same,Efficacy %,Musca domestica; calculated from 24 h mortality against untreated control,58.95%
same,knock down by %,"Musca domestica; reading at 10′, 30 min exposure, cypermethrin formulation 6.06 g/l (0.224 g/l a.i.), cypermethrin:synergist 1:13",6* %
same,knock down by %,"Musca domestica; reading at 20′, 30 min exposure, cypermethrin formulation 6.06 g/l (0.224 g/l a.i.), cypermethrin:synergist 1:13",46%
same,knock down by %,"Musca domestica; reading at 30′, 30 min exposure, cypermethrin formulation 6.06 g/l (0.224 g/l a.i.), cypermethrin:synergist 1:13",68%
same,knock down by %,"Musca domestica; reading at 40′, 30 min exposure, cypermethrin formulation 6.06 g/l (0.224 g/l a.i.), cypermethrin:synergist 1:13",83%
same,knock down by %,"Musca domestica; reading at 50′, 30 min exposure, cypermethrin formulation 6.06 g/l (0.224 g/l a.i.), cypermethrin:synergist 1:13",85%
same,knock down by %,"Musca domestica; reading at 60′, 30 min exposure, cypermethrin formulation 6.06 g/l (0.224 g/l a.i.), cypermethrin:synergist 1:13",85%
same,knock down by %,"Musca domestica; reading at 90′, 30 min exposure, cypermethrin formulation 6.06 g/l (0.224 g/l a.i.), cypermethrin:synergist 1:13",82%
same,knock down by %,"Musca domestica; reading at 120′, 30 min exposure, cypermethrin formulation 6.06 g/l (0.224 g/l a.i.), cypermethrin:synergist 1:13",76%
same,knock down by %,"Musca domestica; reading at 180′, 30 min exposure, cypermethrin formulation 6.06 g/l (0.224 g/l a.i.), cypermethrin:synergist 1:13",73%
same,mortality at 120 µg/mL,"Blattella germanica; Blattella germanica, 24 h after start of 30 min exposure, Abbott's formula",22.9%
same,knock down,Blattella germanica; reading at 5′,0
same,knock down,Blattella germanica; reading at 10′,6.7
same,knock down,Blattella germanica; reading at 15′,20
same,knock down,Blattella germanica; reading at 20′,40
same,knock down,Blattella germanica; reading at 25′,56.7
same,knock down,Blattella germanica; reading at 30′,60
"O=[N+]([O-])NC1=NCCN1Cc1ccc(Cl)nc1 [Imidacloprid, imidacloprid, reference compound]",Efficacy of the tested compounds,[1]; Imidacloprid (0.004 g per liter),14.2
"N#C/N=C1\SCCN1Cc1ccc(Cl)nc1 [thiacloprid, reference compound]",Efficacy of the tested compounds,[1]; thiacloprid (0.012 g per liter),36.242
